Measured values reported in the supplement of paper PMC10307832.

Columns and labels:
Test in all cases: relative viability (nuclei count vs DMSO), 5 days (fraction); higher = more cells survive
[1] = compound: C1CCC(CC1)N(CCNCCC2=C3C(=C(C=C2)O)NC(=O)CO3)C(=O)CCNCCC4=CC(=C(C=C4)Cl)Cl [AZ505] + N=C(N)NC(=N)NCCc1ccccc1 [Phenformin] (partner 250 µM)
In short: (§1)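 Relative viability divides the nuclei count in treated wells by that in vehicle wells. Lung cancer cell lines were seeded in 1536-well plates, dosed by pin tool the next day, and fixed and stained after 5 days in one step with final 0.05% Triton X-100, 1% formaldehyde and 1 ug/ml Hoechst. Dosing was a single drug or a fixed anchor-drug dose plus five library-drug doses (not always all listed) in √10 steps, and values are medians of duplicate plates imaged at 4×.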

[2] = compound: Cn1c(=O)n(-c2ccc(C(C)(C)C#N)cc2)c2c3cc(-c4cnc5ccccc5c4)ccc3ncc21 [Dactolisib] + CCNC(=O)c1noc(-c2cc(C(C)C)c(O)cc2O)c1-c1ccc(CN2CCOCC2)cc1 [Luminespib] (partner 0.01 µM)
In short: as §1

[3] = compound: C1CCC(CC1)N(CCNCCC2=C3C(=C(C=C2)O)NC(=O)CO3)C(=O)CCNCCC4=CC(=C(C=C4)Cl)Cl [AZ505] + C[C@]1(O)C[C@@H](c2nc(-c3ccc4ccc(-c5ccccc5)nc4c3)c3c(N)nccn32)C1 [Linsitinib] (partner 1 µM)
In short: as §1

[4] = compound: C1CCC(CC1)N(CCNCCC2=C3C(=C(C=C2)O)NC(=O)CO3)C(=O)CCNCCC4=CC(=C(C=C4)Cl)Cl [AZ505] + COc1cccc2cc(-c3nc([C@H]4CC[C@H](C(=O)O)CC4)n4ncnc(N)c34)[nH]c12 [OSI-027] (partner 0.5 µM)
In short: as §1

| Cell Line | relative viability ([1]; first compound 0.08 µM) | relative viability ([1]; first compound 0.253 µM) | relative viability ([1]; first compound 0.8 µM) | relative viability ([1]; first compound 2.53 µM) | relative viability ([1]; first compound 8 µM) | relative viability ([2]; first compound 0.002 µM) | relative viability ([2]; first compound 0.006325 µM) | relative viability ([2]; first compound 0.02 µM) | relative viability ([2]; first compound 0.06325 µM) | relative viability ([2]; first compound 0.2 µM) | relative viability ([3]; first compound 0.08 µM) | relative viability ([3]; first compound 0.253 µM) | relative viability ([3]; first compound 0.8 µM) | relative viability ([3]; first compound 2.53 µM) | relative viability ([3]; first compound 8 µM) | relative viability ([4]; first compound 0.08 µM) | relative viability ([4]; first compound 0.253 µM) | relative viability ([4]; first compound 0.8 µM) | relative viability ([4]; first compound 2.53 µM) | relative viability ([4]; first compound 8 µM) |
| --- | --- | --- | --- | --- | --- | --- | --- | --- | --- | --- | --- | --- | --- | --- | --- | --- | --- | --- | --- | --- |
| LK-2 | 0.387 | 0.43 | 0.514 | 0.713 | 0.427 | 0.152 | 0.198 | 0.195 | 0.171 | 0.197 | 0.408 | 0.703 | 0.578 | 0.427 | 0.812 | 0.238 | 0.206 | 0.232 | 0.229 | 0.2 |
| NCI-H1437 | 0.311 | 0.286 | 0.298 | 0.317 | 0.311 | 1.15 | 1.18 | 1.21 | 1.14 | 0.59 | 1.02 | 1.15 | 1.08 | 1.08 | 1.03 | 0.864 | 0.963 | 0.911 | 0.823 | 0.872 |
| COR-L23 | 0.446 | 0.463 | 0.383 | 0.442 | 0.441 | 0.678 | 0.49 | 0.284 | 0.123 | 0.138 | 0.684 | 0.772 | 0.749 | 0.855 | 0.692 | 0.494 | 0.65 | 0.588 | 0.486 | 0.656 |
| ABC-1 | 0.196 | 0.211 | 0.242 | 0.252 | 0.219 | 0.496 | 0.59 | – | 0.257 | 0.366 | 0.636 | 0.889 | 0.935 | 0.901 | 0.697 | 0.469 | 0.325 | 0.521 | 0.493 | 0.558 |
